Read-outs that look alike come from different tables or passages of the source.
Columns and labels:
[1] = tested on: Aedes aegypti (New Orleans); test: Membrane feeding, Aedes aegypti New Orleans strain; type: in vivo; conditions: read-out: IC50 [95% CI]
[2] = tested on: Anopheles gambiae (Tiassalé); test: Membrane feeding, Anopheles gambiae Tiassalé strain (rdl mutation); type: in vivo; conditions: for IC50: Anopheles gambiae, read-out: IC50 [95% CI]
Experimental: Mosquito colonies utilized in the examples were generally maintained as described: The colony of Anopheles stephensi (Sind-Kasur Nijmegen strain) was maintained at the Radboud University Medical Center, Nijmegen, The Netherlands, by 30° C. and 70-80% humidity and on a 12/12 hour day/night cycle. The Anopheles gambiae strains Kisumu and Tiassalé and the Aedes aegypti strains New Orleans and Cayman were reared at the Liverpool Insect Testing Establishment, Liverpool, UK. Kisumu is an insecticide susceptible lab strain. New Orleans was originally colonized by the Centers for Disease Control and Prevention. The Tiassalé strain was colonized from Southern Cote D'Ivoire where resistance to all classes of insecticide is found and the Cayman strain was colonized from Grand Cayman, where Aedes aegypti are highly resistant to DDT and pyrethroid insecticides. Both resistant strains are routinely selected with insecticides to ensure the maintenance of resistance, 0.75% permethrin for Cayman and 0.05% deltamethrin for Tiassalé, and profiled for resistance to a range of insecticides, including 4% dieldrin, to which Tiassalé is resistant but Cayman is susceptible.
(§1) Isoxazoline compounds fluralaner or afoxolaner were reconstituted in 50% human serum and 50% red blood cells and administered to adult Anopheles stephensi mosquitos via standard membrane feeding. Lethality was assessed 1, 2 or 8 days after exposure. FIG. 2A represents a plot of viable Anopheles stephensi versus fluralaner concentration at each day of assessment. FIG. 2B represents a plot of viable Anopheles stephensi versus afoxolaner concentration at each day of assessment. […] The IC50 values of each compound for Anopheles death were determined by logistic regression using a least squares method to find the best fit and are shown in Table 1. IC50 values were calculated by applying a four-parameter logistic regression model using a least-squares method to find the best fit using the Graphpad Prism 5.0 software package.
The membrane feeding experiment described was repeated using the insecticide dieldrin on two strains of Anopheles gambiae: Kisumu and Tiassale. The Tiassale strain has a mutation in the resistance to dieldrin (rdl) locus, which codes for γ-aminobutyric acid (GABA) receptor. The Tiassale strain was resistant to pyrethroids, carbamate, DDT and dieldrin (knockdown resistance (kdr), Ace and rdl mutations). The Kisumu strain was susceptible to killing by all tested insecticides. FIG. 3A represents a plot of percentage survival of Kisumu and Tiassale strains of Anopheles gambiae versus dieldrin concentration. FIG. 3B represents a plot of survival of the Kisumu and Tiassale strains at 10 μM dieldrin. […] Both figures indicate that the dose-response in systemic feed experiment performed here in allows for identification of a resistance profile.
The feed experiment in Anopheles gambiae was repeated using the isoxazoline compounds fluralaner and afoxolaner to determine if the rdl mutation confers resistance to the isoxazoline insecticides. Isoxazoline insecticides target Rdl, but in a location thought to be different from dieldrin. The mosquitos were fed fluralaner or afoxolaner at various concentrations and lethality was assessed after 24 hours. FIG. 4A represents a plot of percentage survival of Kisumu and Tiassale strains of Anopheles gambiae versus fluralaner concentration. FIG. 4B represents a plot of percentage survival of Kisumu and Tiassale strains of Anopheles gambiae versus afoxolaner concentration.

Anopheles mosquitos = test: Lethal duration estimated by extrapolating published Beagle dog PK curves to killing concentrations
Description: Data for fluralaner in Beagle dogs was obtained from Walther et al., Parasites & Vectors 8:508. Data from afoxolaner in Beagle dogs was obtained from Letendre et al., Veterinary Parasitology, 201, 190-197.
The lethal duration of fluralaner and afoxolaner was estimated by extrapolating pharmacokinetic curves from published studies in Beagle dogs to the killing concentrations determined by the membrane feeding studies described in Example 2. Data for fluralaner in Beagle dogs was obtained from Walther et al., Parasites & Vectors 8:508. Data from afoxolaner in Beagle dogs was obtained from Letendre et al., Veterinary Parasitology, 201, 190-197. A mathematical model was used to estimate the impact of these compounds on Anopheles stephensi mosquito survival.

[3] = Further in vitro degradation assay, human primary hepatocytes; conditions: for half-life / hepatocyte CLint: human; for metabolization when incubated with human hepatocytes: in words
Experimental: In a further assay, isoxazolines (fluralaner and afoxolaner) and control compounds (7-Ethoxycoumarin and 7-Hydroxycoumarin [Sigma]) were dissolved in DMSO at 10 and 30 mM respectively, then diluted first 20-fold with 45% methanol in water and a further 10-fold in pre-warmed Williams' Medium E. Cryopreserved human, dog and rat hepatocytes (In Vitro Technologies) were thawed, isolated by percoll gradient and suspended in Williams' Medium E. Cells were then dispensed into the wells of 96-well plates containing 10 μL of diluted compounds, to reach a final concentration of 0.5×10^6 cells/mL and 1 μM of isoxazolines or 3 μM of control. After an incubation at 37° C. of 0, 15, 30, 60 or 90 minutes, the reaction was stopped with acetonitrile. The samples were then shaken for 10 minutes at 500 rpm and centrifuged at 3220 g for 20 minutes. Supernatants were transferred and stored at 4° C. until LC-MS-MS analysis.

Phlebotomus argentipes = test: Membrane feeding, sand fly Phlebotomus argentipes; conditions: in vivo
Description: (§2) Isoxazoline compounds fluralaner or afoxolaner were reconstituted in 50% human serum and 50% red blood cells and administered to sand flies Lutzomyia longipalpis and Phlebotomus argentipes via standard membrane feeding. These san fly species are vectors for visceral leishmaniasis. FIG. 12A represents a plot of viable Lutzomyia longipalpis versus fluralaner concentration at various times of assessment. FIG. 12B represents a plot of viable Lutzomyia longipalpis versus afoxolaner concentration at various times of assessment. FIG. 12C represents a plot of viable Phlebotomus argentipes versus fluralaner concentration at various times of assessment. FIG. 12D represents a plot of viable Phlebotomus argentipes versus afoxolaner concentration at various times of assessment. […] The EC50 values of each compound for sand fly death were determined by logistic regression using a least squares method to find the best fit and are shown in the figures.

[4] = Dog pharmacokinetics (published values); cited from earlier work
[5] = tested on: Anopheles gambiae (Kisumu); test: Membrane feeding, Anopheles gambiae Kisumu strain; type: in vivo; conditions: read-out: IC50 [95% CI]
Experimental: Mosquito colonies utilized in the examples were generally maintained as described: The colony of Anopheles stephensi (Sind-Kasur Nijmegen strain) was maintained at the Radboud University Medical Center, Nijmegen, The Netherlands, by 30° C. and 70-80% humidity and on a 12/12 hour day/night cycle. The Anopheles gambiae strains Kisumu and Tiassalé and the Aedes aegypti strains New Orleans and Cayman were reared at the Liverpool Insect Testing Establishment, Liverpool, UK. Kisumu is an insecticide susceptible lab strain. New Orleans was originally colonized by the Centers for Disease Control and Prevention. […]
as §1, with “exposure.” for “exposure. FIG. 2A represents a plot of viable Anopheles stephensi versus fluralaner concentration at each day of assessment. FIG. 2B represents a plot of viable Anopheles stephensi versus afoxolaner concentration at each day of assessment.”, “package. […]” for “package.”

Lutzomyia longipalpis = test: Membrane feeding, sand fly Lutzomyia longipalpis; conditions: in vivo
Description: as §2

In the case of `O=C(CNC(=O)c1ccc(C2=NO[C@](c3cc(Cl)cc(C(F)(F)F)c3)(C(F)(F)F)C2)c2ccccc12)NCC(F)(F)F` (racemic) [Afoxolaner, afoxolaner], the IC50 ([1]; 24 h) is reported as 100 nM, the IC50 ([2]; 24 h) is reported as 101 nM and the “activity against strain carrying the resistance-to-dieldrin (rdl) mutation (in words)” value ([2]; Tiassalé strain) is reported as “fully active”. The “time the concentration is above lethal level” value (Anopheles mosquitos; 1 mg/kg) was 43 days, the “time the concentration is above lethal level” value (Anopheles mosquitos; 4 mg/kg) was 72 days and the half-life ([3]; hepatocytes) was over 3.61 h. For the same molecule, the hepatocyte CLint ([3]; hepatocytes) was under 6.4 µL/min/1e6 cells, the “metabolization when incubated with human hepatocytes” value [3] was “Neither fluralaner nor afoxolaner showed measurable metabolization” and the “killing of sand flies (in words)” value (Phlebotomus argentipes) was “effective at killing the sand flies in a dose-dependent manner”. The “CL (plasma clearance)” value [4] was 4.95 mL/h/kg, the Oral bioavailability [4] was 74% and the “V (volume of distribution)” value [4] was 2.68 L/kg. For the same molecule, the half-life [4] was 372 h, the IC50 ([5]; 24 h) was 101 nM and the “killing of sand flies (in words)” value (Lutzomyia longipalpis) was “effective at killing the sand flies in a dose-dependent manner”.

For `Cc1cc(C2=NO[C@](c3cc(Cl)cc(Cl)c3)(C(F)(F)F)C2)ccc1C(=O)NCC(=O)NCC(F)(F)F` [Fluralaner, fluralaner], the IC50 ([1]; 24 hours after the blood meal, New Orleans strain) was 34.2 nM, the IC50 ([2]; 24 hours after the blood meal, Tiassalé strain) was 33.2 nM and the “activity against strain carrying the resistance-to-dieldrin (rdl) mutation (in words)” value ([2]; Tiassalé strain) was “fully active”. The “time the concentration is above the level lethal to Anopheles mosquitos” value (Anopheles mosquitos; dose of 56 mg/kg) was 72 days, the half-life ([3]; cryopreserved hepatocytes) was over 3.61 h and the hepatocyte CLint ([3]; cryopreserved hepatocytes) was under 6.4 µL/min/1e6 cells. For the same molecule, the “metabolization when incubated with human hepatocytes” value [3] was “Neither fluralaner nor afoxolaner showed measurable metabolization”, the “killing of sand flies (in words)” value (Phlebotomus argentipes) was “effective at killing the sand flies in a dose-dependent manner” and the “CL (plasma clearance)” value [4] was 5.83 mL/h/kg. For the same molecule, the Oral bioavailability [4] was 11-34%, the “V (volume of distribution)” value [4] was 3.1 L/kg and the half-life [4] was 360 h. For the same molecule, the IC50 ([5]; 24 hours after the blood meal, Kisumu strain) was 33.3 nM and the “killing of sand flies (in words)” value (Lutzomyia longipalpis) was “effective at killing the sand flies in a dose-dependent manner”.

Source: US20200061026A1, “METHODS AND COMPOSITIONS FOR PREVENTING VECTOR-BORNE DISEASE TRANSMISSION” (The Scripps Research Institute, priority 2016, published 2020)
